Measured values: patent US20190290620A1, “APPLICATIONS OF NOVEL THIAZOLE DERIVATIVE IN TREATING INFLAMMATORY BOWEL DISEASES” (EAST CHINA UNIVERSITY OF SCIENCE AND TECHNOLOGY, priority 2016, published 2019)
Marks after values point to notes of the source that are not given here.

Test system: TNBS-induced ulcerative colitis model mice
Experiment: TNBS-induced mice ulcerative colitis model
Assay type: in vivo, BALB/c male mice
Design: key to Scores of gross morphological damages: 0 = no adhesion/ulcer/inflammation, 4+ = severe ulcers (+1 per cm)
Settings: for Score (body weight index according to the disease activity index, DAI): 0-4 points by weight decrease; for Score (body weight index according to the disease activity index, DAI) / Length of the colon / Weight of the colon / Histopathology scores / Scores of gross morphological damages / weight/length ratio (average) of colon: ig 7 days, sulfasalazine 500 mg/kg; for Score (body weight index according to the disease activity index, DAI) / Length of the colon / Weight of the colon / Histopathology scores / Scores of gross morphological damages / weight/length ratio (average) of colon / Ratio of weight loss: compound 20 mg/kg; for Length of the colon / Weight of the colon: 24 hours after last administration; for Histopathology scores: H&E colon sections, epithelial cells and inflammatory cell infiltration points; for Scores of gross morphological damages: colon adhesion, ulceration, inflammation points; for weight/length ratio (average) of colon: colon weight (g) / length (cm); for Ratio of weight loss: ig daily for 7 days from day of modeling, positive drug sulfasalazine 500 mg/kg, 10 mice per group; for diarrhea of the mice (general condition): TNBS-mediated UC model BALB/c mice, Compound 16 in three different dosage groups, sulfasalazine control group; for extent of ulcer lesions of colon and visceral adhesions: compound 312 at 5 mg/kg, 20 mg/kg, 50 mg/kg and positive drugs, vs model group; for histopathology of colon (HE staining, mucosal integrity / lesions): compared with the model group
Method: BALB/c male mice (each 18-22 g) of SPF level were purchased from Shanghai Slack Laboratory Animal Co., Ltd. and were used in experiments after adaptive feeding for 7 days.
BALB/c male mice were kept in an animal cage (daylight and darkness of 12 hours, respectively) at a temperature of 20-25° C. and relative humidity of 50-60%, free access to food and water.
Mice were randomly divided into normal control group, trinitrobenzenesulfonic acid (TNBS) model group, drug treatment group and positive drug control group (sulfasalazine 500 mg/kg).
All of the mice in model group and administration group were shaved in the abdomen (area 2×2 cm) and sensitized with 1% TNBS (dissolved in 50% ethanol). On the 7th day, the mice were fasted, but not water. After 24 hours, the mice were anesthetized through intraperitoneal injection of 0.1 ml of 10% chloral hydrate and 2% TNBS was used for lavation to establish a mouse model of ulcerative colitis. A gavage needle for rat was inserted into the colon of a mouse, the tip of the needle was about 3˜3.5 cm away from the anus, and 0.1 ml of modeling solution (5% TNBS and deionized water were mixed at a volume ratio of 4:1, and the obtained solution was mixed with absolute ethanol at a volume ratio of 1:1, so as to obtain the modeling solution) was injected. The mice were put back into the cage and wake up naturally. The mice in the normal control group were injected with 0.12 ml of solvent (50% ethanol solution) by the same manner.
Administration was started on the day of modeling (using 0.5% sodium carboxymethylcellulose, CMC-Na) for 7 consecutive days.
At 24 hours after the last administration, the mice were sacrificed by cervical dislocation, the peritoneum was cut open, and the whole colon was taken. The intestine was cut longitudinally along the mesenteric margin, rinsed with ice physiological saline, placed on ice, and the pathological changes of the colon were observed. The fat and mesentery were removed, the water was blotted with filter paper, the weight of the colon was weighed and the length was measured. The colon was fixed in 4% formaldehyde for more than 24 hours, dehydrated, paraffin-embedded and H&E stained, and the pathological sections were observed.
The mice were observed and recorded daily for mental state, fur color, and activities. The mice was weighed daily and observed for the stool traits. The body weight index according to the disease activity index (DAI) is as follows:
After the colon of a mouse was removed, the weight of the colon was measured with a precision electronic balance, the length was measured with a vernier caliper, and the weight/length ratio of the colon was calculated.
The criteria for scores were: no adhesion, no ulcer, no inflammation, 0 points; mild adhesion, local congestion, no ulcer, 1 point; severe adhesion, 1 ulcer (area less than 1 cm), no obvious inflammation, 2 points; more than 1 ulcers (area less than 1 cm) with inflammation, 3 points; 2 severe ulcers (area greater than 1 cm) with inflammation, 4 points; and 1 point for each 1 cm increase in ulcer area.
Pathological changes of colon tissue were observed under light microscope, and the scores were recorded. The criteria for scores are as follows:
1) Epithelial cells: normal morphology, 0 points; loss of goblet cells, 1 point; large loss of goblet cells, 2 points; loss of crypt cells, 3 points; large loss of crypt cells, 4 points.
2) Infiltration of inflammatory cells: no infiltration, 0 points; infiltration in the basal layer of the crypt, 1 point; infiltration to the muscular layer of the mucosa, 2 points; infiltration to the muscular layer of the mucosa with mucosal thickening and obvious edema, 3 points; infiltration to the submucosal layer, 4 points.
Data were expressed as […] (mean±S.E.M.), data were analyzed using SPSS statistical software, and one-way ANOVA and Tukey's HSD post hoc test were used for comparison between groups. p<0.05 was considered statistically significant.

CN(/N=C/c1ccc(F)cc1C(=O)O)c1nc(-c2ccccc2Cl)cs1 [Compound 10, (E)-4-(2-chlorophenyl)-2-[1-methyl-2-(2-carboxyl-4-fluorobenzylidene)hydrazino]thiazole]
Score (body weight index according to the disease activity index, DAI): 1
Length of the colon: 6.321 ± 0.436 cm
Weight of the colon: 0.162 ± 0.045 g
Histopathology scores: 2.09 ± 0.44
Scores of gross morphological damages: 1.02 ± 0.41
weight/length ratio (average) of colon: 0.026#
Ratio of weight loss: 1.92 ± 3.20

CN(/N=C/c1ccccc1C(=O)O)c1nc(-c2ccccc2)cs1 [Compound 20, (E)-4-phenyl-2-[1-methyl-2-(2-carboxybenzylidene)hydrazino]thiazole]
Histopathology scores: 3.65 ± 0.42
Scores of gross morphological damages: 3.33 ± 0.59

CN(/N=C/c1ccccc1C(=O)O)c1nc(-c2cccc(Cl)c2)cs1 [Compound 21, (E)-4-(3-chlorophenyl)-2-[1-methyl-2-(2-carboxybenzylidene)hydrazino]thiazole]
Length of the colon: 4.986 ± 0.452 cm
Weight of the colon: 0.158 ± 0.025 g
Histopathology scores: 2.54 ± 0.62
Scores of gross morphological damages: 2.31 ± 0.79
weight/length ratio (average) of colon: 0.032#

Cc1sc(N/N=C/c2ccccc2C(=O)O)nc1-c1ccccc1 [Compound 17, (E)-5-methyl-4-phenyl-2-(2-carboxylbenzylidenehydrazino)thiazole]
Length of the colon: 5.124 ± 0.332 cm
Weight of the colon: 0.159 ± 0.034 g
weight/length ratio (average) of colon: 0.030#

CN(/N=C/c1ccccc1C(=O)O)c1nc(-c2ccccc2Cl)cs1 [Compound 1, (E)-4-(2-chlorophenyl)-2-[1-methyl-2-(2-carboxybenzylidene)hydrazino]thiazole]
Score (body weight index according to the disease activity index, DAI): 1
Length of the colon: 5.575 ± 0.452 cm
Weight of the colon: 0.162 ± 0.027 g
Histopathology scores: 2.54 ± 0.62
Scores of gross morphological damages: 2.32 ± 0.69
weight/length ratio (average) of colon: 0.029#
Ratio of weight loss: 2.61 ± 4.53

CN(/N=C/c1ccc(C(F)(F)F)cc1C(=O)O)c1nc(-c2ccccc2Cl)cs1 [Compound 8, (E)-4-(2-chlorophenyl)-2-[1-methyl-2-(4-trifluoromethyl-2-carboxybenzylidene)hydrazino]thiazole]
Score (body weight index according to the disease activity index, DAI): 1
Length of the colon: 6.005 ± 0.452 cm
Weight of the colon: 0.157 ± 0.027 g
Histopathology scores: 1.59 ± 0.68
Scores of gross morphological damages: 1.42 ± 0.78
weight/length ratio (average) of colon: 0.026#
Ratio of weight loss: 1.07 ± 2.98

Cc1ccc(/C=N/Nc2nc(-c3ccccc3Cl)cs2)c(C(=O)O)c1 [Compound 9-1]
Length of the colon: 5.985 ± 0.363 cm
Weight of the colon: 0.152 ± 0.023 g
Histopathology scores: 3.94 ± 0.51
Scores of gross morphological damages: 3.63 ± 0.71
weight/length ratio (average) of colon: 0.025#

Cc1ccc(/C=N/N(C)c2nc(-c3ccccc3Cl)cs2)c(C(=O)O)c1 [Compound 9, (E)-4-(2-chlorophenyl)-2-[1-methyl-2-(4-methyl-2-carboxybenzylidene)hydrazino]thiazole]
Score (body weight index according to the disease activity index, DAI): 1
Ratio of weight loss: 3.29 ± 4.70

Cc1sc(N/N=C/c2ccccc2C(=O)O)nc1-c1ccccc1Cl [Compound 15, (E)-5-methyl-4-(2-chlorophenyl)-2-(2-carboxylbenzylidenehydrazino)thiazole]
Length of the colon: 5.546 ± 0.402 cm
Weight of the colon: 0.163 ± 0.023 g
weight/length ratio (average) of colon: 0.029#

CCN(/N=C/c1ccccc1C(=O)O)c1nc(-c2ccccc2Cl)cs1 [Compound 2, (E)-4-(2-chlorophenyl)-2-[1-ethyl-2-(2-carboxybenzylidene)hydrazino]thiazole]
Score (body weight index according to the disease activity index, DAI): 1
Histopathology scores: 3.10 ± 0.55
Scores of gross morphological damages: 3.37 ± 0.60
Ratio of weight loss: 1.22 ± 3.68

O=C(O)c1cc(/N=N/c2ccc(S(=O)(=O)Nc3ccccn3)cc2)ccc1O [sulfasalazine, reference compound]
Score (body weight index according to the disease activity index, DAI): 1
Length of the colon: 5.814 ± 0.465 cm
Weight of the colon: 0.145 ± 0.018 g
diarrhea of the mice (general condition) (FIG. 2): mild
death of mice (FIG. 2, on the 8th day of the experiment, model group mortality about 50%): only one mouse died
extent of ulcer lesions of colon and visceral adhesions (FIG. 3): can improve the extent of ulcer lesions of colon and visceral adhesions
histopathology of colon (HE staining, mucosal integrity / lesions) (FIG. 4): largely reversed
Histopathology scores: 1.71 ± 0.69
Scores of gross morphological damages: 0.81 ± 0.69
weight/length ratio (average) of colon: 0.025#
Ratio of weight loss: 1.54 ± 3.72

CCCN(/N=C/c1ccccc1C(=O)O)c1nc(-c2ccccc2Cl)cs1 [Compound 3, (E)-4-(2-chlorophenyl)-2-[1-propyl-2-(2-carboxybenzylidene)hydrazino]thiazole]
Score (body weight index according to the disease activity index, DAI): 2
Length of the colon: 5.699 ± 0.368 cm
Weight of the colon: 0.159 ± 0.023 g
weight/length ratio (average) of colon: 0.028#
Ratio of weight loss: 4.26 ± 4.65

CN(/N=C/c1cc(F)c(F)cc1C(=O)O)c1nc(-c2ccccc2Cl)cs1 [Compound 23]
Score (body weight index according to the disease activity index, DAI): 3
Length of the colon: 4.997 ± 0.476 cm
Weight of the colon: 0.153 ± 0.027 g
Histopathology scores: 2.32 ± 0.58
Scores of gross morphological damages: 2.02 ± 0.60
weight/length ratio (average) of colon: 0.030#
Ratio of weight loss: 6.27 ± 2.76

O=C(O)c1ccccc1/C=N/Nc1nc(-c2ccccc2Cl)cs1 [Compound 16, (E)-4-(2-chlorophenyl)-2-(2-carboxybenzylidenehydrazino)thiazole]
Score (body weight index according to the disease activity index, DAI): 1
diarrhea of the mice (general condition) (FIG. 2): relieved compared with the model group
effect on colonic lesions, comparison of dosages (FIG. 3, 5 mg/kg): best effect on colonic lesions
extent of ulcer lesions of colon and visceral adhesions (FIG. 3): can improve the extent of ulcer lesions of colon and visceral adhesions
histopathology of colon, comparison of dosages (FIG. 4, 5 mg/kg and 50 mg/kg vs 20 mg/kg): more effective than those at 20 mg/kg
histopathology of colon (HE staining, mucosal integrity / lesions) (FIG. 4): mucosal integrity was improved to a greater extent
Histopathology scores: 2.54 ± 0.49
Scores of gross morphological damages: 2.22 ± 0.54
Ratio of weight loss: 3.55 ± 1.47

O=C(O)c1c(F)cccc1/C=N/Nc1nc(-c2ccccc2Cl)cs1 [Compound 58, (E)-2-((2-(4-(2-chlorophenyl)thiazol-2-yl)hydrazono)methyl)-6-fluorobenzoic Acid]
Length of the colon: 5.575 ± 0.392 cm
Weight of the colon: 0.162 ± 0.028 g
Histopathology scores: 3.59 ± 0.61
Scores of gross morphological damages: 4.32 ± 0.79
weight/length ratio (average) of colon: 0.029#
